Experimental data published in ChEMBL document CHEMBL1201862, “PubChem BioAssay data set” (2004).
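Cultured in 96-well plates, cells were exposed to test compound for 48 hours across five concentrations. GI50 marks 50% less growth.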 Active and inactive are the calls of the source. Rule as the data show it: active = GI50 up to about 1.1 µM and inactive = higher.

Assays:
Experiment in all cases: NCI-60 cell line screen, 48 h
OVCAR-8 = system: OVCAR-8
SNB-75 = system: SNB-75
IGROV-1 = system: IGROV-1
OVCAR-5 = system: OVCAR-5
HOP-92 = system: HOP-92
MDA-N = system: MDA-N
SW-620 = system: SW-620
CCRF-CEM = system: CCRF-CEM
786-0 = system: 786-0
SK-MEL-2 = system: SK-MEL-2
SN12C = system: SN12C
NCI-H522 = system: NCI-H522
UACC-62 = system: UACC-62
Hs-578T = system: Hs-578T
SF-295 = system: SF-295
UO-31 = system: UO-31
NCI-H23 = system: NCI-H23
HCT-15 = system: HCT-15
DU-145 = system: DU-145
MDA-MB-435 = system: MDA-MB-435
A498 = system: A498
MDA-MB-231 = system: MDA-MB-231
HL-60 = system: HL-60
MCF7 = system: MCF7
HOP-62 = system: HOP-62
M14 = system: M14
SK-OV-3 = system: SK-OV-3
OVCAR-3 = system: OVCAR-3
LOX IMVI = system: LOX IMVI
ACHN = system: ACHN
HT-29 = system: HT-29
TK-10 = system: TK-10
MOLT-4 = system: MOLT-4
UACC-257 = system: UACC-257
SF-268 = system: SF-268
SNB-19 = system: SNB-19
PC-3 = system: PC-3
OVCAR-4 = system: OVCAR-4
T47D = system: T47D
RXF 393 = system: RXF 393
Malme-3M = system: Malme-3M
HCC 2998 = system: HCC 2998
COLO 205 = system: COLO 205
CAKI-1 = system: CAKI-1
KM12 = system: KM12
EKVX = system: EKVX
SK-MEL-5 = system: SK-MEL-5
A549 = system: A549
RPMI-8226 = system: RPMI-8226
SK-MEL-28 = system: SK-MEL-28
NCI/ADR-RES = system: NCI/ADR-RES
K562 = system: K562
NCI-H460 = system: NCI-H460
HCT-116 = system: HCT-116
NCI-H226 = system: NCI-H226
SR = system: SR
SF-539 = system: SF-539
U-251 = system: U-251

For `Cc1ccccc1NC(=S)N/N=C1\C(=O)Nc2ccccc21`, the GI50 (OVCAR-8) was > 100 µM (inactive), the GI50 (SNB-75) was > 100 µM (inactive) and the GI50 (IGROV-1) was > 100 µM (inactive). For the same compound, the GI50 (OVCAR-5) was > 100 µM (inactive), the GI50 (HOP-92) was > 100 µM (inactive) and the GI50 (MDA-N) was > 100 µM (inactive). The GI50 (SW-620) was > 100 µM (inactive), the GI50 (CCRF-CEM) was > 100 µM (inactive) and the GI50 (786-0) was > 100 µM (inactive). For the same compound, the GI50 (SK-MEL-2) was > 100 µM (inactive), the GI50 (SN12C) was > 100 µM (inactive) and the GI50 (NCI-H522) was > 100 µM (inactive). The GI50 (UACC-62) was > 100 µM (inactive), the GI50 (Hs-578T) was > 100 µM (inactive) and the GI50 (SF-295) was > 100 µM (inactive). The GI50 (UO-31) was > 100 µM (inactive), the GI50 (NCI-H23) was > 100 µM (inactive) and the GI50 (HCT-15) was > 100 µM. For the same compound, the GI50 (DU-145) was 31.4 µM (inactive), the GI50 (MDA-MB-435) was > 100 µM (inactive) and the GI50 (A498) was 86.3 µM (inactive). The GI50 (MDA-MB-231) was > 100 µM (inactive), the GI50 (HL-60) was > 100 µM (inactive) and the GI50 (MCF7) was > 100 µM (inactive). The GI50 (HOP-62) was > 100 µM (inactive), the GI50 (M14) was > 100 µM (inactive) and the GI50 (SK-OV-3) was > 100 µM (inactive). The GI50 (OVCAR-3) was > 100 µM (inactive), the GI50 (LOX IMVI) was > 100 µM (inactive) and the GI50 (ACHN) was > 100 µM (inactive). The GI50 (HT-29) was > 100 µM (inactive), the GI50 (TK-10) was > 100 µM (inactive) and the GI50 (MOLT-4) was > 100 µM (inactive). The GI50 (UACC-257) was > 100 µM (inactive), the GI50 (SF-268) was 15.1 µM (inactive) and the GI50 (SNB-19) was > 100 µM (inactive). The GI50 (PC-3) was > 100 µM (inactive), the GI50 (OVCAR-4) was > 100 µM (inactive) and the GI50 (T47D) was > 100 µM (inactive). For the same compound, the GI50 (RXF 393) was > 100 µM (inactive), the GI50 (Malme-3M) was > 100 µM (inactive) and the GI50 (HCC 2998) was > 100 µM (inactive). The GI50 (COLO 205) was > 100 µM (inactive), the GI50 (CAKI-1) was > 100 µM (inactive) and the GI50 (KM12) was > 100 µM (inactive). For the same compound, the GI50 (EKVX) was > 100 µM (inactive), the GI50 (SK-MEL-5) was > 100 µM (inactive) and the GI50 (A549) was > 100 µM (inactive). The GI50 (RPMI-8226) was > 100 µM (inactive), the GI50 (SK-MEL-28) was 15.1 µM (inactive) and the GI50 (NCI/ADR-RES) was > 100 µM (inactive). For the same compound, the GI50 (K562) was > 100 µM (inactive), the GI50 (NCI-H460) was > 100 µM (inactive) and the GI50 (HCT-116) was > 100 µM (inactive). For the same compound, the GI50 (NCI-H226) was > 100 µM (inactive), the GI50 (SR) was 70.6 µM (inactive) and the GI50 (SF-539) was > 100 µM (inactive). For the same compound, the GI50 (U-251) was > 100 µM (inactive).

For `CCCCCC(/C=N/Nc1ccccc1)C(O)(C(F)(F)F)C(F)(F)F` (stereo not drawn), the GI50 (OVCAR-8) was > 100 µM (inactive), the GI50 (SNB-75) was > 100 µM (inactive) and the GI50 (IGROV-1) was > 100 µM (inactive). For the same compound, the GI50 (OVCAR-5) was > 100 µM (inactive), the GI50 (HOP-92) was > 100 µM (inactive) and the GI50 (MDA-N) was > 100 µM (inactive). For the same compound, the GI50 (SW-620) was > 100 µM (inactive), the GI50 (CCRF-CEM) was 83.2 µM (inactive) and the GI50 (786-0) was > 100 µM (inactive). The GI50 (SK-MEL-2) was > 100 µM (inactive), the GI50 (SN12C) was > 100 µM (inactive) and the GI50 (NCI-H522) was > 100 µM (inactive). For the same compound, the GI50 (UACC-62) was > 100 µM (inactive), the GI50 (Hs-578T) was > 100 µM (inactive) and the GI50 (SF-295) was > 100 µM (inactive). For the same compound, the GI50 (UO-31) was > 100 µM (inactive), the GI50 (NCI-H23) was > 100 µM (inactive) and the GI50 (HCT-15) was > 100 µM. For the same compound, the GI50 (DU-145) was > 100 µM (inactive), the GI50 (MDA-MB-435) was > 100 µM (inactive) and the GI50 (A498) was > 100 µM (inactive). For the same compound, the GI50 (MDA-MB-231) was > 100 µM (inactive), the GI50 (HL-60) was > 100 µM (inactive) and the GI50 (HOP-62) was > 100 µM (inactive). The GI50 (M14) was > 100 µM (inactive), the GI50 (SK-OV-3) was > 100 µM (inactive) and the GI50 (OVCAR-3) was > 100 µM (inactive). The GI50 (LOX IMVI) was > 100 µM (inactive), the GI50 (ACHN) was > 100 µM (inactive) and the GI50 (HT-29) was > 100 µM (inactive). The GI50 (MOLT-4) was 61.8 µM (inactive), the GI50 (UACC-257) was > 100 µM (inactive) and the GI50 (SF-268) was > 100 µM (inactive). For the same compound, the GI50 (SNB-19) was > 100 µM (inactive), the GI50 (PC-3) was > 100 µM (inactive) and the GI50 (OVCAR-4) was > 100 µM (inactive). The GI50 (T47D) was > 100 µM (inactive), the GI50 (RXF 393) was > 100 µM (inactive) and the GI50 (Malme-3M) was > 100 µM (inactive). For the same compound, the GI50 (HCC 2998) was > 100 µM (inactive), the GI50 (COLO 205) was > 100 µM (inactive) and the GI50 (CAKI-1) was > 100 µM (inactive). For the same compound, the GI50 (EKVX) was > 100 µM (inactive), the GI50 (SK-MEL-5) was > 100 µM (inactive) and the GI50 (A549) was > 100 µM (inactive). The GI50 (RPMI-8226) was > 100 µM (inactive), the GI50 (SK-MEL-28) was > 100 µM (inactive) and the GI50 (NCI/ADR-RES) was > 100 µM (inactive). For the same compound, the GI50 (K562) was > 100 µM (inactive), the GI50 (NCI-H460) was > 100 µM (inactive) and the GI50 (HCT-116) was > 100 µM (inactive). The GI50 (NCI-H226) was > 100 µM (inactive), the GI50 (SR) was > 100 µM (inactive) and the GI50 (SF-539) was > 100 µM (inactive). The GI50 (U-251) was > 100 µM (inactive).
